Source: US20230413818A1, “FEED AND METHODS FOR CONTROLLING TICK INFESTATIONS IN A MAMMAL” (In the Bowl Animal Health, Inc., priority 2021, published 2023)

Tests used:
[1] = Average plasma concentration of spinosad in dogs after oral dosing; assay type: in vivo
Description: (§1) Methods: A pool of 40 dogs are to be screened before inclusion in this example by preliminarily infesting them with ˜100 unfed adult Ctenocephalidesfelis in order to produce a pool of dogs that can suitably sustain a reliable infestation rate of approximately 50% of live fleas over a 48-hour period. The dogs with the highest live flea counts are to be randomly allocated to 2 treatment groups (6 dogs per group) based on their pre-treatment flea counts from experimental infestations. The first treatment group is to be the control group and the second treatment group to be the test group.
(§2) The dogs are to be housed individually during the study period and are to be fed a commercial dry dog food ration with ad libitum access to water.
(§3) Each dog in the test group is to receive by mouth a liquid formulation of spinosyn preferably spinosad. The dosage of 2.5 mg/kg of the dog's weight is to be administered to the dogs on each of days 0-29 and the dosage of 5 mg/kg of the dog's weight is to be administered on days 30-50.
Dogs in the control group are not to receive spinosyn or any other tick control treatment. Each dog in the test group is to be offered its daily ration (dry food) and the individual doses of liquid formulation are to be administered after the individual dog has eaten at least 25% of its total daily ration. After receiving the dose of spinosyn the dogs are to be allowed to continue eating. This mimics incorporating the spinosyn in feed. Each dog in the test group and the control group is to be experimentally infested with 50 unfed adult ticks (ca. 50% male/50% female) on test days 12, 19, 28, 35, 42, 49 and 56. Comb counts for attached live and moribund adult ticks are to be conducted on days 14, 21, 30, 37, 44, 51 and 58. Note that the dosage is to be increased at day 30 and the final dose is to be given on day 50.
Using the same study method as described above, blood is to be drawn at 72, 120, 168, 336, 504, 720 and 888 hours after the initial dose of spinosyn is administered. The average concentration of spinosyn in the blood for different dosage levels can then be determined.
Referring now to TABLE 1 and FIG. 2. Sample results are shown for the average plasma concentration of spinosad in a canine's blood (ng/mL) versus time in hours for different dosage levels of spinosad. By way of comparison, the average plasma concentration of spinosyn for a single-dose administration to be given monthly (squares) is shown with the average plasma concentration of spinosyn for a substantially daily dose of 2.5 mg/kg/day or 5.0 mg/kg/day (circles). The daily dose is increased from 2.5 mg/kg/day to 5.0 mg/kg/day at about hour 700 (around day 30).

Rhipicephalus sanguineus = assay: Efficacy of spinosyn administered per os to dogs for treatment and control of Rhipicephalus sanguineus (tick comb counts); assay type: in vivo; conditions: oral daily dose increased from 2.5 to 5.0 mg/kg/day around day 30, days 37-50, FIG. 1
Description: Efficacy of Spinosyn Administered per os, i.e. by Mouth, to Dogs for the Treatment and Control of Rhipicephalus sanguineus.
as §1, §2, §3
Dogs in the control group are not to receive spinosyn or any other tick control treatment. […]
Results: Referring now to FIG. 1. […] Percent Efficacy is determined according to the formula [AM ticks CONTROL−AM ticks TREATED]/AM ticks Control. […]

**Q.** Which results are given for spinosad?
**A.** Average Plasma Concentration ([1]; oral daily 2.5-5.0 mg/kg/day spinosad (2.5 mg/kg/day phase), 72 hours): 221.50 ng/mL; Average Plasma Concentration ([1]; oral daily 2.5-5.0 mg/kg/day spinosad (2.5 mg/kg/day phase), 120 hours): 327.07 ng/mL; Average Plasma Concentration ([1]; oral daily 2.5-5.0 mg/kg/day spinosad (2.5 mg/kg/day phase), 168 hours): 455.78 ng/mL; Average Plasma Concentration ([1]; oral daily 2.5-5.0 mg/kg/day spinosad (2.5 mg/kg/day phase), 336 hours): 566.25 ng/mL; Average Plasma Concentration ([1]; oral daily 2.5-5.0 mg/kg/day spinosad (2.5 mg/kg/day phase), 504 hours): 668.77 ng/mL; Average Plasma Concentration ([1]; oral daily 2.5-5.0 mg/kg/day spinosad (5.0 mg/kg/day phase), 888 hours): 635.72 ng/mL; Average Plasma Concentration ([1]; oral daily 2.5-5.0 mg/kg/day spinosad (5.0 mg/kg/day phase), 1056 hours): 967.33 ng/mL; Average Plasma Concentration ([1]; oral daily 2.5-5.0 mg/kg/day spinosad (after final dose on day 50), 1392 hours): 761.45 ng/mL; Average Plasma Concentration ([1]; oral daily 2.5-5.0 mg/kg/day spinosad (dose raised to 5.0 mg/kg/day at about hour 700), 720 hours): 533.12 ng/mL; Percent Efficacy (reduction in attached live and moribund adult tick counts vs control) (Rhipicephalus sanguineus): increase in efficacy is clear
